According to US6987017B2, “Methods for producing L-isoleucine” (Massachusetts Institute of Technology, priority 1999, dated 2006):

Experiments:
[1] = tested on: C. glutamicum ATCC 21799 pAPE7 tdcB; format: cell-based, Corynebacterium glutamicum; conditions: defined medium with supplement (casamino acids 2 g·l^−1, amino acids 0.5 g·l^−1 each), 150 mg/l IPTG, flasks
Method: Defined medium for Corynebacterium glutamicum contained the following ingredients (per liter): glucose, 35 g; NaCl, 2 g; citrate (trisodium salt, dihydrate), 3 g; CaCl2.2H2O, 0.1 g; MgSO4.7H2O, 0.5 g; Na2EDTA.2H2O, 75 mg; FeSO4.7H2O, 50 mg; 100× salt solution, 20 ml; K2HPO4, 4 g; KH2PO4, 2 g; (NH4)2SO4, 7.5 g; urea, 3.75 g; leucine 0.85 g; thiamine, 0.45 mg; biotin, 0.45 mg; pantothenic acid, 4.5 mg (pH 7.0). The salt solution contained the following ingredients (per liter): MnSO4, 200 mg; Na2B4O7.10H2O, 20 mg; (NH4)6Mo7O24.4H2O, 10 mg; FeCl3.6H2O, 200 mg; ZnSO4.7H2O, 50 mg; CuCl2.2H2O, 20 mg (pH 2.0). When appropriate, kanamycin (150 mg/liter) and isopropyl-β-D-thiogalactopyranoside (IPTG) (150 mg/l) was used.
For the growth study with amino acid supplements, the defined medium was complemented with Bacto® casamino acids (Difco, Detroit, Mich.) at a concentration of 2 g·l^−1 or with amino acid (alanine, glycine, methionine or valine) at a concentration of 0.5 g·l^−1 each.
Valine and methionine were chosen to test due to their direct connection with the isoleucine pathway, and alanine and glycine for their indirect connection through the use of pyruvate, which is also a substrate for the isoleucine pathway.

tdcB gene product = target: T1, tdcB gene product (Escherichia coli, UniProt P0AGF6); assay: Threonine dehydratase activity of E. coli AB1255 (pAPE5) crude extracts in the presence of isoleucine; format: biochemical; conditions: isoleucine up to 47 mM; consistent activity
T1 construct: tdcB and ilvA coding regions were amplified by the Polymerase Chain Reaction (PCR); expressed in transfected cells; host or cells: E. coli AB1255 carrying pAPE5 (pTrc99a-based, trc:tdcB); cell-free crude extract
Method: (§1) Enzyme assays were performed with cell free crude extracts, prepared by the following method. Cells were harvested by centrifugation for 10 min at 5000×g at 4° C. and washed with 10 ml of the enzyme assay buffer (100 mM Tris-HCl, pH 7.5, containing 20 mM KCl, 5 mM MnSO4, 0.1 mM EDTA, and 2 mM dithiothreitol) (Jetten, M. S. M., et al., Appl. Microbiol. Biotechnol. 41:47-52 (1994)). The cell pellet was resuspended in the same buffer containing a protease inhibitor cocktail (Boehringer Mannheim, Germany) so that the final concentration was 20 g dry cell weight·l^−1. Resuspended cells were disrupted with a glass bead mixer (5100 Mixer-Mill, SPEX, Metuchen, N.J.). […] Protein concentrations were determined by the method of Bradford (Bradford, M. M., Anal. Biochem. 72:248-254 (1976)) with the Bio-Rad (Hercules, Calif.) protein assay kit using bovine serum albumin as a standard.
(§2) For determination of threonine dehydratase activity, the assay mixture contained 40 mM threonine, 1 mM pyridoxal phosphate, crude extract and 100 mM potassium phosphate buffer, pH 8.0 in a final volume of 1 ml. […] After a 15 min incubation at room temperature, the amount of alpha-ketobutyrate formed at various intervals was measured spectrophotometrically as its semicarbazone derivative at 254 nm (=0.52 mmol·cm^−1). […]

[2] = target: T2, endogenous threonine dehydratase (encoded by ilvA) (Corynebacterium glutamicum, UniProt Q04513); conditions: C. glutamicum MH20-22B; Morbach et al. 1995; cited from earlier work
T2 construct: host or cells: Corynebacterium glutamicum MH20-22B
T2 sequence (Q04513 1-436): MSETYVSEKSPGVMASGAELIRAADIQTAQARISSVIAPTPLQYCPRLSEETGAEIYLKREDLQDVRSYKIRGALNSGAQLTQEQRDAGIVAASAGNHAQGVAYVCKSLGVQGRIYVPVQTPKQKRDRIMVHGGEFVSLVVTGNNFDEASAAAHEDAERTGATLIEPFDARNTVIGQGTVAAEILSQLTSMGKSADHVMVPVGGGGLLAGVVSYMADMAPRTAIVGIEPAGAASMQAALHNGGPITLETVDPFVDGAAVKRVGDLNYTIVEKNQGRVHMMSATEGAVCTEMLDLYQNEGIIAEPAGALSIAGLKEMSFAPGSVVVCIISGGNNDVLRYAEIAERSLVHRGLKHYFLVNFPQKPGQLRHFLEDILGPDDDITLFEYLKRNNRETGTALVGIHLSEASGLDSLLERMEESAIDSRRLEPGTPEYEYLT

[3] = target: mutated threonine dehydratase V323A (Corynebacterium glutamicum, UniProt Q04513, V323A); conditions: 50 mM isoleucine; Morbach et al. 1995; cited from earlier work
[4] = target: T3, Anabolic threonine dehydratase (Corynebacterium glutamicum, UniProt Q04513); assay: Isoleucine sensitivity of anabolic (native) threonine dehydratase in crude extracts of C. glutamicum ATCC21799; format: biochemical; conditions: ATCC 21799 crude extract
T3 construct: endogenous in cells; host or cells: Corynebacterium glutamicum ATCC 21799; cell-free crude extract
Method: as §1, §2

[5] = target: T4, catabolic threonine dehydratase (Escherichia coli, UniProt P0AGF6); assay: Isoleucine sensitivity of catabolic threonine dehydratase (tdcB) in crude extracts of C. glutamicum ATCC 21799 (pAPE7); format: biochemical, E. coli
T4 construct: tdcB and ilvA coding regions were amplified by the Polymerase Chain Reaction (PCR); expressed in transfected cells; host or cells: Corynebacterium glutamicum ATCC 21799 carrying pAPE7 (trc:tdcB); cell-free crude extract
Method: Enzyme assays were performed with cell free crude extracts, prepared by the following method. Cells were harvested by centrifugation for 10 min at 5000×g at 4° C. and washed with 10 ml of the enzyme assay buffer (100 mM Tris-HCl, pH 7.5, containing 20 mM KCl, 5 mM MnSO4, 0.1 mM EDTA, and 2 mM dithiothreitol) (Jetten, M. S. M., et al., Appl. Microbiol. Biotechnol. 41:47-52 (1994)). The cell pellet was resuspended in the same buffer containing a protease inhibitor cocktail (Boehringer Mannheim, Germany) so that the final concentration was 20 g dry cell weight·l^−1. Resuspended cells were disrupted with a glass bead mixer (5100 Mixer-Mill, SPEX, Metuchen, N.J.). 2.5 ml of bacterial suspension was poured in a frozen steel vial containing 5 g of cold 106 μm-diameter glass beads (Sigma) and one stainless steel ball bearing. The vials containing bacterial suspension and glass beads were vigorously shaken at 4° C. using the mixer by 10 cycles of 30 sec shaking separated by rest cycles of one minute. Cell debris were removed by centrifugation for 20 min at 47000×g at 4° C. The supernatant (crude extract) was then tested for enzyme activity. Protein concentrations were determined by the method of Bradford (Bradford, M. M., Anal. Biochem. 72:248-254 (1976)) with the Bio-Rad (Hercules, Calif.) protein assay kit using bovine serum albumin as a standard.
as §2
In order to confirm the insensitivity to isoleucine of catabolic dehydratase expressed in a lysine producing strain of C. glutamicum, threonine dehydratase activities were measured in crude extracts of strains ATCC21799 and ATCC21799 carrying pAPE7 at different concentrations of isoleucine (FIG. 3). […]

AHAS = conditions: Eggeling et al. 1987; cited from earlier work
C. glutamicum ATCC 21799 = assay: IPTG addition in batch fermentation of wild type ATCC 21799; format: cell-based, Corynebacterium glutamicum; conditions: wild type culture, IPTG 150 mg/l
Method: (§3) For determination of threonine dehydratase activity, the assay mixture contained 40 mM threonine, 1 mM pyridoxal phosphate, crude extract and 100 mM potassium phosphate buffer, pH 8.0 in a final volume of 1 ml. The reaction was started with the addition of threonine and terminated by the addition of 1 ml solution containing 1% semicarbazide and 0.9% sodium acetate. After a 15 min incubation at room temperature, the amount of alpha-ketobutyrate formed at various intervals was measured spectrophotometrically as its semicarbazone derivative at 254 nm (=0.52 mmol·cm^−1). Relevant standards and controls were carried out in the same manner. For specific determination of catabolic threonine dehydratase activity, the assay mixture contained 20 mM isoleucine in order to inhibit the anabolic threonine dehydratase.
In FIGS. 3-6, the results of the enzymatic assays are expressed in terms of relative expression of threonine dehydratase compared to wild type expression as the ratio between the specific activity of the enzyme of a strain and the specific activity of the wild type. […]
C. glutamicum ATCC 21799 was grown twice in defined medium in a 4-liter reactor. […] A concentration of isoleucine of 50 mg·l^−1 was detected at the end of both cultures. Oxygenation of the cultures being sufficient, neither lactate nor acetate was detected during the fermentation.

[6] = tested on: C. glutamicum ATCC 21799 harboring pAPE13; assay: IPTG induction of threonine dehydratase in batch fermentation of ATCC 21799 (pAPE13); format: cell-based, Corynebacterium glutamicum; conditions: IPTG 150 mg/l added at 1.5 g cell dry weight·l^−1
Method: as §3
(§4) In FIGS. 3-6, the results of the enzymatic assays are expressed in terms of relative expression of threonine dehydratase compared to wild type expression as the ratio between the specific activity of the enzyme of a strain and the specific activity of the wild type. Each assay was replicated five times, and the results were reproducible within 15%.
(§5) Starter cultures of Corynebacterium glutamicum were prepared by transferring one colony from LB agar plates to 5 ml of LB medium. These cultures were incubated for two days at 30° C. and 200 rpm. […]

[7] = tested on: C. glutamicum ATCC 21799 harboring pAPE7; assay: IPTG induction of catabolic threonine dehydratase in batch fermentation of ATCC 21799 (pAPE7); format: cell-based, Corynebacterium glutamicum; conditions: IPTG 150 mg/l
Method: as §3, §4, §5

T4 sequence (P0AGF6 whole entry): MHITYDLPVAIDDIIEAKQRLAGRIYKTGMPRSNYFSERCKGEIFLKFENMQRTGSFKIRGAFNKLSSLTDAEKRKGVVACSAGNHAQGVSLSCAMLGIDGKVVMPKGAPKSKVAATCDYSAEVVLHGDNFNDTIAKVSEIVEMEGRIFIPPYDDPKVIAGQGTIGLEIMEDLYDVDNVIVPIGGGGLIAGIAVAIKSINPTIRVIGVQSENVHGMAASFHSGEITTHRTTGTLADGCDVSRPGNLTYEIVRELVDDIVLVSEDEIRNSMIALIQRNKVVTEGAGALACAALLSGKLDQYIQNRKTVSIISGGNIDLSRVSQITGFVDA
T1 sequence (P0AGF6 whole entry): as above
Sequence of mutated threonine dehydratase V323A (Q04513 whole entry V323A): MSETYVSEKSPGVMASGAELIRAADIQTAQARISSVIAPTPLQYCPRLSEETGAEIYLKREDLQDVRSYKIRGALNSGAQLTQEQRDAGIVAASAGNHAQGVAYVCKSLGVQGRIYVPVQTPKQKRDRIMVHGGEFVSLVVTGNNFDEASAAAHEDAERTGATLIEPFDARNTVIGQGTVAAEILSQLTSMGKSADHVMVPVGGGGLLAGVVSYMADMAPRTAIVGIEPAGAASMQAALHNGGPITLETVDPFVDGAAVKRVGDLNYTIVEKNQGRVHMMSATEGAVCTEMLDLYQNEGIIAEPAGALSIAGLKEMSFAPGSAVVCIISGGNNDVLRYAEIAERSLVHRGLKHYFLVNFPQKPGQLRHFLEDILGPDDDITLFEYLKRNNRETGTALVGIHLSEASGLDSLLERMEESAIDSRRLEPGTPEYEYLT

NCC(=O)O [Glycine, glycine]
Specific growth rate [1]: 0.17 h⁻¹

CC(C)[C@H](N)C(=O)O [Valine, valine]
Specific growth rate [1]: 0.24 h⁻¹

CC[C@H](C)[C@H](N)C(=O)O [isoleucine]
threonine dehydratase activity of AB1255 (pAPE5) extracts in the presence of isoleucine (tdcB gene product): about 80 μmol product·min^−1·mg protein^−1 | isoleucine concentration giving complete inhibition of the endogenous threonine dehydratase [2]: 5 mM | remaining activity of mutated threonine dehydratase V323A [3]: 22% | isoleucine concentration that totally inhibits the native (anabolic) threonine dehydratase [4]: 15 mM | remaining activity at 50000 µM ([5]; 50 mM isoleucine, read-out: remaining activity of catabolic threonine dehydratase of E. coli): 70 to 80% | inhibition at 200000 µM ([5]; 200 mM isoleucine): 40% | retained original activity of catabolic threonine dehydratase ([5]; 200 mM isoleucine): 60%

CSCC[C@H](N)C(=O)O [Methionine, methionine]
Specific growth rate [1]: 0.26 h⁻¹

CCC(=O)C(=O)O [alpha-ketobutyrate]
affinity of AHAS for alpha-ketobutyrate relative to pyruvate (AHAS): 3 fold

CC(C)S[C@@H]1O[C@H](CO)[C@H](O)[C@H](O)[C@H]1O [IPTG, isopropyl-β-D-thiogalactopyranoside]
effect of IPTG addition on threonine dehydratase (C. glutamicum ATCC 21799): did not lead to an increase | increase in the level of threonine dehydratase after addition of IPTG [6]: 20 fold | catabolic threonine dehydratase concentration relative to original enzyme after addition of IPTG [7]: 15 fold

C[C@H](N)C(=O)O [Alanine, alanine]
Specific growth rate [1]: 0.17 h⁻¹
